Laboratory results: patent US10808018B2, “Erythropoietin-derived peptides and methods of protecting cells from oxidative damage induced by reactive oxygen species” (SYLUS CO., LTD., priority 2017, dated 2020)
Peptide text beside a SMILES is read from it.

Biological target: T1, Soluble mouse EPOR chimera proteins (erythropoietin receptor) (Mus musculus, UniProt P14753)
T1 construct: Soluble mouse EPOR chimera proteins; purchased R&D Systems
T1 sequence (P14753 25-249 limits assumed): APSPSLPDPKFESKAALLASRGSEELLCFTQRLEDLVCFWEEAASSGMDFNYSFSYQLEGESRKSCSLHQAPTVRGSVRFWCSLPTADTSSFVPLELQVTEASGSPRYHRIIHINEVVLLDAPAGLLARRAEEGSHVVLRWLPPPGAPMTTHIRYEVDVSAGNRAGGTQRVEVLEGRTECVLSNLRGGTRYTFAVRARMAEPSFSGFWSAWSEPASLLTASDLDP
Assay: Surface plasmon resonance (SPR) binding affinity to erythropoietin receptor
Settings: for Ka: association rate
Text: The SPR technique is to measure interactions between biomolecules in real-time by using an optical principle without specific labeling, and is a system analyzing affinity between two molecules and kinetics, i.e., an association rate (Ka) and a dissociation rate (Kd). In detail, real-time SPR analysis may be performed using Reichert SPR Biosensor SR […] instrument (Reichert Inc., NY, USA). Soluble mouse EPOR chimera proteins (R&D Systems, Minneapolis, Minn., USA) were covalently linked to a carboxymethylated dextran matrix-coated chip (BR-1005-39, Pharmacia Biosensor AB) by an amine coupling procedure using an amine coupling kit (BR-1000-50, GE Healthcare, USA) in accordance with manufacturer's instructions. Each 5 pM, 2.5 pM, and 1.25 pM of the peptide samples of the present disclosure and scrambled peptides were applied at a flow rate of 5 μl/minute, and the experiments were independently performed in duplicate. For signal normalization, DMSO was applied at a flow rate of 5 μl/minute. After each binding cycle, the sensor chip was regenerated by injecting 25 mM of acetic acid at a flow rate of 20 μl/minute.

| Kd (Table 8) [µM] | Ka (Table 8) | Ka (Table 9) | dissociation rate constant (koff) (Table 8) | dissociation rate constant (koff) (Table 9) | SMILES |
| --- | --- | --- | --- | --- | --- |
| 6.46 | 1.311 × 10^3 | 1310.8 | 8.5 × 10^−3 | 8.47E−03 | CC(C)C[C@H](NC(=O)CNC(=O)[C@H](CO)NC(=O)[C@@H](NC(=O)[C@H](C)NC(=O)[C@H](CCCCN)NC(=O)[C@H](CC(=O)O)NC(=O)[C@@H](NC(=O)[C@H](Cc1c[nH]cn1)NC(=O)[C@H](CC(C)C)NC(=O)[C@H](CCC(N)=O)NC(=O)[C@@H](N)CC(C)C)C(C)C)C(C)C)C(=O)N[C@@H](CCCNC(=N)N)C(=O)N[C@@H](CO)C(=O)N[C@@H](CC(C)C)C(=O)N[C@H](C(=O)N[C@H](C(=O)N[C@@H](CC(C)C)C(=O)N[C@@H](CC(C)C)C(=O)N[C@@H](CCCNC(=N)N)C(=O)N[C@@H](C)C(=O)N[C@@H](CC(C)C)C(=O)NCC(=O)O)[C@@H](C)O)[C@@H](C)O [ML1] (H-LQLHVDKAVSGLRSLTTLLRALG-OH; N-terminus and C-terminus assumed) |
| – | 2.2 × 10^2 | – | 2.2 × 10^−3 | – | CC[C@H](C)[C@H](NC(=O)[C@H](C)NC(=O)[C@H](CCC(=O)O)NC(=O)[C@H](CCCCN)NC(=O)[C@H](CCC(N)=O)NC(=O)[C@H](C)NC(=O)CNC(=O)[C@H](CC(C)C)NC(=O)[C@H](C)NC(=O)[C@H](CCCNC(=N)N)NC(=O)[C@H](CC(C)C)NC(=O)[C@H](CC(C)C)NC(=O)[C@@H](NC(=O)[C@@H](NC(=O)[C@H](CC(C)C)NC(=O)[C@H](CO)NC(=O)[C@H](CCCNC(=N)N)NC(=O)[C@H](CC(C)C)NC(=O)CNC(=O)[C@H](CO)NC(=O)[C@@H](NC(=O)[C@H](C)NC(=O)[C@H](CCCCN)NC(=O)[C@@H](N)CC(=O)O)C(C)C)[C@@H](C)O)[C@@H](C)O)C(=O)O [ML4] (H-DKAVSGLRSLTTLLRALGAQKEAI-OH; N-terminus and C-terminus assumed) |
| – | 3.04 × 10^2 | – | 0.1 × 10^−3 | – | CC(C)C[C@H](NC(=O)CNC(=O)[C@@H](N)CO)C(=O)N[C@@H](CCCNC(=N)N)C(=O)N[C@@H](CO)C(=O)N[C@@H](CC(C)C)C(=O)N[C@H](C(=O)N[C@H](C(=O)N[C@@H](CC(C)C)C(=O)N[C@@H](CC(C)C)C(=O)N[C@@H](CCCNC(=N)N)C(=O)N[C@@H](C)C(=O)N[C@@H](CC(C)C)C(=O)NCC(=O)O)[C@@H](C)O)[C@@H](C)O [ML5] (H-SGLRSLTTLLRALG-OH; N-terminus and C-terminus assumed) |
| – | – | – | 4.4 × 10^−3 | – | CC(C)C[C@H](NC(=O)[C@H](C)NC(=O)[C@H](CCCNC(=N)N)NC(=O)[C@H](CC(C)C)NC(=O)[C@H](CC(C)C)NC(=O)[C@@H](NC(=O)[C@@H](NC(=O)[C@H](CC(C)C)NC(=O)[C@H](CO)NC(=O)[C@H](CCCNC(=N)N)NC(=O)[C@H](CC(C)C)NC(=O)CNC(=O)[C@H](CO)NC(=O)[C@@H](NC(=O)[C@H](C)NC(=O)[C@H](CCCCN)NC(=O)[C@H](CC(=O)O)NC(=O)[C@@H](NC(=O)[C@H](Cc1c[nH]cn1)NC(=O)[C@@H](N)CC(C)C)C(C)C)C(C)C)[C@@H](C)O)[C@@H](C)O)C(=O)O [ML2] (H-LHVDKAVSGLRSLTTLLRAL-OH; N-terminus and C-terminus assumed) |

Further lines, the compound ahead of its results:

| SMILES | Kd (Table 8) [µM] | Ka (Table 8) | Ka (Table 9) | dissociation rate constant (koff) (Table 8) | dissociation rate constant (koff) (Table 9) |
| --- | --- | --- | --- | --- | --- |
| CC[C@H](C)[C@H](NC(=O)[C@H](C)NC(=O)[C@H](CCC(=O)O)NC(=O)[C@H](CCCCN)NC(=O)[C@H](CCC(N)=O)NC(=O)[C@H](C)NC(=O)CNC(=O)[C@H](CC(C)C)NC(=O)[C@H](C)NC(=O)[C@H](CCCNC(=N)N)NC(=O)[C@H](CC(C)C)NC(=O)[C@H](CC(C)C)NC(=O)[C@H](CO)NC(=O)[C@@H](NC(=O)[C@H](CC(C)C)NC(=O)[C@H](CO)NC(=O)[C@H](CCCNC(=N)N)NC(=O)[C@H](CC(C)C)NC(=O)CNC(=O)[C@@H](N)CCCCN)[C@@H](C)CC)C(=O)O [ML6-1] (H-KGLRSLISLLRALGAQKEAI-OH; N-terminus and C-terminus assumed) | – | 1.9 × 10^2 | – | 3 × 10^−2 | – |
| CC[C@H](C)[C@H](NC(=O)[C@H](C)NC(=O)[C@H](CCC(=O)O)NC(=O)[C@H](CCCCN)NC(=O)[C@H](CCC(N)=O)NC(=O)[C@H](C)NC(=O)CNC(=O)[C@H](CC(C)C)NC(=O)[C@H](C)NC(=O)[C@H](CCCNC(=N)N)NC(=O)[C@H](CC(C)C)NC(=O)[C@@H](NC(=O)[C@H](Cc1c[nH]cn1)NC(=O)[C@@H](NC(=O)[C@H](CC(C)C)NC(=O)[C@@H](NC(=O)[C@H](CCCCN)NC(=O)[C@H](CC(C)C)NC(=O)CNC(=O)[C@H](CO)NC(=O)[C@@H](NC(=O)[C@H](C)NC(=O)[C@H](CCCCN)NC(=O)[C@@H](N)CCCCN)C(C)C)[C@@H](C)O)[C@@H](C)O)[C@@H](C)CC)C(=O)O [ML4-1] (H-KKAVSGLKTLTHILRALGAQKEAI-OH; N-terminus and C-terminus assumed) | – | 4.10 × 10^2 | – | 1.20 × 10^−2 | – |
| CC[C@H](C)[C@H](NC(=O)[C@H](CCSC)NC(=O)[C@H](C)NC(=O)[C@H](CC(C)C)NC(=O)[C@@H](NC(=O)[C@H](CCCNC(=N)N)NC(=O)[C@H](CC(C)C)NC(=O)CNC(=O)[C@H](C)NC(=O)[C@@H](NC(=O)[C@H](C)NC(=O)[C@H](CCCCN)NC(=O)[C@H](CC(C)C)NC(=O)[C@@H](NC(=O)[C@H](Cc1c[nH]cn1)NC(=O)[C@H](CC(C)C)NC(=O)[C@H](CCC(N)=O)NC(=O)[C@@H](N)CC(C)C)C(C)C)C(C)C)[C@@H](C)O)C(=O)N[C@@H](CCCNC(=N)N)C(=O)N[C@@H](CCCNC(=N)N)C(=O)N[C@@H](C)C(=O)N[C@@H](CC(C)C)C(=O)N[C@@H](C)C(=O)O [ML1-H3] (H-LQLHVLKAVAGLRTLAMIRRALA-OH; N-terminus and C-terminus assumed) | – | – | 4157.6 | – | 4.77E−03 |
| CC(C)C[C@H](NC(=O)CNC(=O)[C@H](CO)NC(=O)[C@@H](NC(=O)[C@H](C)NC(=O)[C@H](CCCCN)NC(=O)[C@H](CC(=O)O)NC(=O)[C@@H](NC(=O)[C@H](CCC(=O)O)NC(=O)[C@H](CC(C)C)NC(=O)[C@H](CC(=O)O)NC(=O)[C@@H](N)CC(C)C)C(C)C)C(C)C)C(=O)N[C@@H](CCCNC(=N)N)C(=O)N[C@@H](CO)C(=O)N[C@@H](CC(C)C)C(=O)N[C@H](C(=O)N[C@H](C(=O)N[C@@H](CC(C)C)C(=O)N[C@@H](CC(C)C)C(=O)N[C@@H](CCCNC(=N)N)C(=O)N[C@@H](C)C(=O)N[C@@H](CC(C)C)C(=O)NCC(=O)O)[C@@H](C)O)[C@@H](C)O [ML1-C1] (H-LDLEVDKAVSGLRSLTTLLRALG-OH; N-terminus and C-terminus assumed) | – | – | 1745.7 | – | 0.2617 |
| CC[C@H](C)[C@H](NC(=O)[C@H](CCSC)NC(=O)[C@@H](NC(=O)[C@H](CC(C)C)NC(=O)[C@@H](NC(=O)[C@H](CC(C)C)NC(=O)[C@H](CC(C)C)NC(=O)CNC(=O)[C@H](CO)NC(=O)[C@@H](NC(=O)[C@H](C)NC(=O)[C@H](CCCCN)NC(=O)[C@H](CC(C)C)NC(=O)[C@@H](NC(=O)[C@H](Cc1c[nH]cn1)NC(=O)[C@H](CC(C)C)NC(=O)[C@H](CCC(N)=O)NC(=O)[C@@H](N)CC(C)C)C(C)C)C(C)C)[C@@H](C)O)[C@@H](C)O)C(=O)N[C@@H](CCCNC(=N)N)C(=O)N[C@@H](CCCNC(=N)N)C(=O)N[C@@H](C)C(=O)N[C@@H](CC(C)C)C(=O)NCC(=O)O [ML1-H2] (H-LQLHVLKAVSGLLTLTMIRRALG-OH; N-terminus and C-terminus assumed) | – | – | 3434.3 | – | 1.05E−03 |
| CC[C@H](C)[C@H](NC(=O)[C@H](CC(C)C)NC(=O)[C@@H](NC(=O)[C@@H](NC(=O)[C@H](CC(C)C)NC(=O)[C@@H](NC(=O)[C@H](CCCNC(=N)N)NC(=O)[C@H](CC(C)C)NC(=O)CNC(=O)[C@@H](NC(=O)[C@H](C)NC(=O)[C@H](C)NC(=O)[C@H](CCCCN)NC(=O)[C@H](CC(=O)O)NC(=O)[C@@H](NC(=O)[C@H](CCC(=O)O)NC(=O)[C@H](CC(C)C)NC(=O)[C@H](CC(=O)O)NC(=O)[C@H](CC(C)C)NC(=O)[C@H](C)NC(=O)[C@H](CCC(=O)O)NC(=O)[C@@H](N)CC(=O)O)C(C)C)[C@@H](C)O)[C@@H](C)O)[C@@H](C)O)[C@@H](C)O)C(=O)N[C@@H](CCCNC(=N)N)C(=O)N[C@@H](C)C(=O)N[C@@H](CC(C)C)C(=O)O [ML7-1] (H-DEALDLEVDKAATGLRTLTTLIRAL-OH; N-terminus and C-terminus assumed) | – | 2.26 × 10^2 | – | 1.44 × 10^−2 | – |
| CC(C)[C@H](NC(=O)[C@H](CCCNC(=N)N)NC(=O)[C@@H](N)[C@@H](C)O)C(=O)N[C@@H](CC(N)=O)C(=O)N[C@@H](Cc1ccc(O)cc1)C(=O)N[C@@H](CCC(N)=O)C(=O)N[C@@H](C)C(=O)N[C@@H](Cc1c[nH]c2ccccc12)C(=O)N[C@@H](CCCCN)C(=O)N[C@@H](CCCNC(=N)N)C(=O)O [ML3-1] (H-TRVNYQAWKR-OH; N-terminus and C-terminus assumed) | – | 3.08 × 10^3 | – | 1.3 × 10^−2 | – |
| CC(C)C[C@H](NC(=O)CNC(=O)[C@H](C)N)C(=O)N[C@@H](CCCNC(=N)N)C(=O)N[C@@H](CO)C(=O)N[C@@H](CCCNC(=N)N)C(=O)N[C@@H](C)C(=O)N[C@@H](Cc1c[nH]cn1)C(=O)N[C@@H](CC(C)C)C(=O)N[C@@H](CCCNC(=N)N)C(=O)N[C@@H](CCCNC(=N)N)C(=O)N[C@@H](C)C(=O)N[C@@H](CC(C)C)C(=O)N[C@@H](C)C(=O)O [ML5-1] (H-AGLRSRAHLRRALA-OH; N-terminus and C-terminus assumed) | – | 4.42 × 10^2 | – | 3.46 × 10^−2 | – |
